Entries after “also recorded” stand apart in the source; their conditions may differ. Bridge positions count the residues as written; N and C are the ends. Ends that are not written are not given here.
Key:
hNav1.7 = molecular target: T1, hNav1.7 (Homo sapiens, UniProt Q15858); assay: Whole-cell patch clamp, hNav1.7 in HEK293T cells; type: cell-based
T1 construct: expressed in transfected cells; host or cells: HEK293T cells, transient transfection (Lipofectamine-2000)
Description: Figure 4 Effects of ISTX-I expressed in HEK293 cells. Current traces were evoked with a 50ms step depolarization to −10 mV from a holding potential of −80 mV every 5s. […] (E) Steady-state inactivation of the hNav1.7 channel before (solid circles) and after (open circles) the application of 10 μM ISTX-I (n = 5).
The effects of ISTX-I on the activation and inactivation kinetics of hNav1.7 were also analyzed. The current-voltage relationships were determined for Nav1.7 channels using step depolarization ranging from −80 to +40 mV from a holding potential of −80 mV.
(§1) HEK293T (human embryonic kidney) cells were grown in DMEM containing 10% heat-inactivated FBS at 37 °C in a 5% CO2 incubator. The cDNA genes encoding human (h)Nav1.1, (h)Nav1.2, (h)Nav1.3, (h)Nav1.4, (h)Nav1.5, (h)Nav1.6 and (h)Nav1.7 were transiently transfected into HEK293T cells for electrophysiology using Lipofectamine-2000 (Invitrogen) in serum-reduced medium (Opti-MEM, Invitrogen) following the manufacturer’s instructions. The auxiliary subunits hβ1 and enhanced green florescent protein plasmids were cotransfected into HEK293T cells to increase the current density and efficiently select cells with green florescent protein for whole-cell patch-clamp recordings. After 12 h, the HEK293T cells were used for electrophysiological analysis.
DRG neurons with a large diameter (>[…]) and those with a relatively small diameter (<[…]) were chosen by measuring TTX-s and TTX-r currents, respectively. Meanwhile, TTX (final concentration at 100 nM) was used to separate TTX-r sodium currents from TTX-s sodium currents. Suction pipettes (2.0–4.0 MΩ) were made of borosilicate glass capillary tubes with two-step pulling on a vertical micropipette puller (PC-10, Narishige). Potassium, calcium, and sodium currents were recorded in experimental cells using whole-cell patch-clamp recordings at room temperature, which were performed with an HEK EPC10 patch-clamp amplifier. The P/4 protocol was used to subtract linear capacitive and leakage currents. Experimental data were acquired and analyzed using the programs patch master and Sigmaplot 9.0 (Sigma, USA). All of the data points represent the mean ± SE (n = the number of separate experimental cells examined). Dose-response curves were fitted using the following Hill logistic equation: y = 1 − (1 − fmax)/[1 + ([Tx]/IC50)^n] in which n is an empirical Hill coefficient and fmax is the fraction of current resistant to inhibition at high toxin (Tx) concentrations.
Electrophysiological studies.
Currents were recorded from experimental cells using whole-cell patch clamptechnique at room temperature (22–25 °C). The patch pipettes were fabricated from borosilicate glass tubing using a two-stage vertical microelectrode puller (PC-10, Narishige, Japan). […]

hNav1.6 = assay: Whole-cell patch clamp, hNav1.6 in HEK293T cells; type: cell-based, human; settings: 10 μM ISTX-I; 50 ms step to -10 mV from -80 mV
Description: as §1
DRG neurons with a large diameter (>[…]) and those with a relatively small diameter (<[…]) were chosen by measuring TTX-s and TTX-r currents, respectively. […] Potassium, calcium, and sodium currents were recorded in experimental cells using whole-cell patch-clamp recordings at room temperature, which were performed with an HEK EPC10 patch-clamp amplifier. […] Experimental data were acquired and analyzed using the programs patch master and Sigmaplot 9.0 (Sigma, USA). […]
Currents were recorded from experimental cells using whole-cell patch clamptechnique at room temperature (22–25 °C). […]

[1] = 5 μM ISTX-I, step depolarization from −80 to +40 mV, holding −80 mV

T1 sequence (Q15858 whole entry): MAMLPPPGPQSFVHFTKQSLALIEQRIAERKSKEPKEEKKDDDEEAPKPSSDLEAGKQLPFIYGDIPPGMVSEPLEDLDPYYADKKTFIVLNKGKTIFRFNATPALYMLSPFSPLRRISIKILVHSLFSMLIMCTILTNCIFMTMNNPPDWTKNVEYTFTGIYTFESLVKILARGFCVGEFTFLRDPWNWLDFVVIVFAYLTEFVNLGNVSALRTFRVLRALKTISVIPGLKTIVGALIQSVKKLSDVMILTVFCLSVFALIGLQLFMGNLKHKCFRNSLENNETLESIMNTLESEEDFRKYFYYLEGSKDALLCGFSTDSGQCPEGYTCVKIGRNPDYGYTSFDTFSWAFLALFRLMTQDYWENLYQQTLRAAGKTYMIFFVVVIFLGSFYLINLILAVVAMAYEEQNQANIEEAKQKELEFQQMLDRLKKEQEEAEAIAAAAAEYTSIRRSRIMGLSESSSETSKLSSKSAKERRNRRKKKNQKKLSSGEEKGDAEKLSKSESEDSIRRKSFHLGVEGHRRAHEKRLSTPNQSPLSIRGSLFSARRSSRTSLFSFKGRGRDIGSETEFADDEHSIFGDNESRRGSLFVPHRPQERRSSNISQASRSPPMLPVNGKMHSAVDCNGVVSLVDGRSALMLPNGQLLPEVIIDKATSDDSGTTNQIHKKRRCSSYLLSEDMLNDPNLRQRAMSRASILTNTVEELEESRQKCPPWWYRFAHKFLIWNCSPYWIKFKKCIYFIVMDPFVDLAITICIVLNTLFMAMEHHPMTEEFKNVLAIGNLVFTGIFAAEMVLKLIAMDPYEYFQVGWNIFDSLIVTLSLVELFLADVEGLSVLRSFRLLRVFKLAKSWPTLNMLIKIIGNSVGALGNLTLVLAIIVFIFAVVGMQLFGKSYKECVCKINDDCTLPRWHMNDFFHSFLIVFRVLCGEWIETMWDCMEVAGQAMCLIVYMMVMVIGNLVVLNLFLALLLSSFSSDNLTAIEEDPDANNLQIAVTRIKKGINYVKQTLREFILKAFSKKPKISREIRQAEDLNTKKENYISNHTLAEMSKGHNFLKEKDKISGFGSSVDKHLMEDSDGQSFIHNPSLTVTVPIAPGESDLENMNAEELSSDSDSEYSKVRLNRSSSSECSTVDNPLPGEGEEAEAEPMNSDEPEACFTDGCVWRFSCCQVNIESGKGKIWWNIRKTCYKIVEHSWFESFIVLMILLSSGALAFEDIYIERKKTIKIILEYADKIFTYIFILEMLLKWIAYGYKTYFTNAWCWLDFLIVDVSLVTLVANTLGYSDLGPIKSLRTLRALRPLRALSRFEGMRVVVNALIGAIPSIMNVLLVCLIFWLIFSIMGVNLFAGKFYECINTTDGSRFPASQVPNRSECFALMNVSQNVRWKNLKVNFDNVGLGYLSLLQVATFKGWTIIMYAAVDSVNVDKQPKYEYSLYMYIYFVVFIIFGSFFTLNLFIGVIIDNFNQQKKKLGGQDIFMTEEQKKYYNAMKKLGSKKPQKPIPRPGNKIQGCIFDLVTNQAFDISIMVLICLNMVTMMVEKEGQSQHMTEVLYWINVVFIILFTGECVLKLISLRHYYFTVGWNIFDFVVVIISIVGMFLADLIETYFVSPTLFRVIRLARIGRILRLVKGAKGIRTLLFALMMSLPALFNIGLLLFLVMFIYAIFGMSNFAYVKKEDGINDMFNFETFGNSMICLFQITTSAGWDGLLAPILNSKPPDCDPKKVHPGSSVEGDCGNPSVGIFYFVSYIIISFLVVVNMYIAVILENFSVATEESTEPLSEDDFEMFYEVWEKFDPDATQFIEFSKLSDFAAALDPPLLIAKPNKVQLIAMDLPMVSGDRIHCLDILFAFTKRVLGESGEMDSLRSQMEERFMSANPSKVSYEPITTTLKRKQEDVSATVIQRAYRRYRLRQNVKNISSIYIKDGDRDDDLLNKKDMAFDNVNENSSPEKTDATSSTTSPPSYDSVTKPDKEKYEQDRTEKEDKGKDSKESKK
T1 sequence (Q07699 19-218, further chain): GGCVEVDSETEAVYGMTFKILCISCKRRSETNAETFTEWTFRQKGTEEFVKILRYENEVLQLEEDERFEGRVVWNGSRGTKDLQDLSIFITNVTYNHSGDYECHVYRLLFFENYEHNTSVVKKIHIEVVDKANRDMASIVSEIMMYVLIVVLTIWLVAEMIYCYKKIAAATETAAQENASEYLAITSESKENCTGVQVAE

LCSENGDCAADECCVDTVFEGDMVTRSCEKTTGNFTECPGLTPIA (disulfide 2-14, 8-28, 13-38) [ISTX-I]
effect on hNav1.7 channel currents (hNav1.7; 1 μM ISTX-I, 50 ms step to −10 mV from −80 mV every 5 s): significantly depressed; also recorded: Inhibition of hNav1.7 | shift of conductance–voltage (G-V) curve (hNav1.7; [1]): no effect; also recorded: did not shift | shift of current-voltage (I-V) curve (hNav1.7; [1]): no effect; also recorded: did not shift | shift of steady-state inactivation curve (hNav1.7; 10 μM ISTX-I, hNav1.7, n = 5): approximately −10 mV | inhibition of Nav1.6 currents (hNav1.6): 10%
